{
  "source": "paper PMC11500415",
  "about": "“Chemical inhibition of stomatal differentiation by perturbation of the master-regulatory bHLH heterodimer via an ACT-Like domain” (Nature Communications, 2024)",
  "experiment_in_all_cases": "Y2H growth and quantitative α-galactosidase assay",
  "type_in_all_cases": "cell-based",
  "key": {"SCRM-FAMA heterodimer": {"molecular_target": "T1, SCRM-FAMA heterodimer (Arabidopsis thaliana, UniProt Q56YJ8)", "T1 construct": "truncated SPCH and FAMA proteins lacking their N-terminal domain were used in yeast; expressed in transfected cells; host or cells: yeast strain AH109", "T1 sequence (Q56YJ8 190-414, one chain of several)": "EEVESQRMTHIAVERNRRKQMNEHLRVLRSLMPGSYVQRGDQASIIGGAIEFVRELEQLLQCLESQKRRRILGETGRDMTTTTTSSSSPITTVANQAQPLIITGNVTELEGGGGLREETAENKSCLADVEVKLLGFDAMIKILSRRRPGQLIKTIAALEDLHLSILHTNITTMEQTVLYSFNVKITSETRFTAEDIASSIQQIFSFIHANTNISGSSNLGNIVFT", "settings": "for a-galactosidase: yeast FAMA∆N+SCRM, individual replicates, listed as AYSJ929", "description": "(§1) Y2H assays were performed using the Matchmaker^TM Two-Hybrid System (Clontech). Bait (pGBKT7) and prey (pGADT7) constructs were co-transformed into the yeast strain AH109 using Frozen-EZ Yeast Transformation II Kit (Zymo Research, T2001). The resulting transformants were spotted on SD ( − Leu, −Trp) and SD ( − Trp, −Leu, −His) selection media containing different concentrations of 3-amino-1,2,4-triazole (Sigma, A8056) as previously reported. Quantitative α-galactosidase assay was also performed according to manufactural instruction (Clontech). Briefly, the transformants were incubated in 2 ml SD medium with 0, 10, 50 100 μM Stomidazolone (3) or SIM3* (7) with rotary shake (220 rpm) at 30 °C overnight. The cultured media containing yeast were transferred to microtubes and centrifuged to obtain the supernatant. The colorimetric assay was performed by incubating 8 μL of supernatant with 24 μL Assay Buffer that contains 0.5 M sodium acetate (pH 4.5) (Nakalai tesque, 31137-25): 100 mM p-nitrophenyl α-D-Galactopyranoside Solution (Sigma N0877) = 2:1 (v/v) at 30 °C for 60 min, then terminated by adding 960 μL 1X Stop Solution (0.1 M sodium carbonate, Fujifilm Wako 195-01582). After OD410 was recorded, α-galactosidase units were calculated according to the protocol (Clontech, P3024-1)."}, "SCRM-MUTE heterodimer": {"molecular_target": "T2, SCRM-MUTE heterodimer (Arabidopsis thaliana, UniProt Q9M8K6)", "T2 construct": "expressed in transfected cells; host or cells: yeast strain AH109", "T2 sequence (Q9M8K6 1-202)": "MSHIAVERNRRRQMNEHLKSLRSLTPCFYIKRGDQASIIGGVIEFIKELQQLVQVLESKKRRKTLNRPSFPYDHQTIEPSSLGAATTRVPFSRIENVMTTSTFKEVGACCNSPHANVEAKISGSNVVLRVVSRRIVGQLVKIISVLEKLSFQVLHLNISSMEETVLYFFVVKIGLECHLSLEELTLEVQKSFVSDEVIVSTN", "settings": "for a-galactosidase: yeast MUTE+SCRM, individual replicates, listed as AYSJ929", "description": "as §1"}, "SCRM-SPCH heterodimer": {"molecular_target": "T3, SCRM-SPCH heterodimer (Arabidopsis thaliana, UniProt Q700C7)", "T3 construct": "truncated SPCH and FAMA proteins lacking their N-terminal domain were used in yeast; expressed in transfected cells; host or cells: yeast strain AH109", "T3 sequence (Q700C7 98-364 limits assumed)": "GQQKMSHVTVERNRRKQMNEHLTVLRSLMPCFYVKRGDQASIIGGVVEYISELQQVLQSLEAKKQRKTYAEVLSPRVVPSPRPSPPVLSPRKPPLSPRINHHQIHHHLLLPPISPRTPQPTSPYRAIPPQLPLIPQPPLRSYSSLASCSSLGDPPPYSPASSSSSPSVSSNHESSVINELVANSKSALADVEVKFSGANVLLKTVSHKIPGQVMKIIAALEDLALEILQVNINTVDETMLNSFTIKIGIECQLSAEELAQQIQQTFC", "settings": "for a-galactosidase: yeast SPCH∆N+SCRM, individual replicates, listed as AYSJ929", "description": "as §1"}},
  "note": "Where “and” joins values, the source holds several entries; their conditions need not be identical. Equal entries are not always repeated.",
  "data": [
    {"smiles": "O=C1C(c2ccccc2)=NC(NS(=O)(=O)c2ccccc2)(c2ccccc2)N1S(=O)(=O)c1ccccc1", "note": "(stereo not drawn) [Stomidazolone]", "values": [
      {"measurement": "effect in quantitative α-galactosidase assay", "setting": "SCRM-FAMA heterodimer; 0, 10, 50, 100 μM", "result": "inhibits these stomatal bHLH heterodimers in a dose-dependent manner"},
      {"measurement": "effect on association in Y2H growth assay", "setting": "SCRM-FAMA heterodimer; 50 μM, 1 mM 3-AT, N-terminally truncated FAMA", "result": "diminishes"},
      {"measurement": "a-galactosidase", "setting": "SCRM-FAMA heterodimer; 10 µM", "result": "9.32 milliunits /(ml x cell) and 7.38 milliunits /(ml x cell) and 8.74 milliunits /(ml x cell)"},
      {"measurement": "a-galactosidase", "setting": "SCRM-FAMA heterodimer; 50 µM", "result": "7.60 milliunits /(ml x cell) and 6.41 milliunits /(ml x cell) and 6.17 milliunits /(ml x cell)"},
      {"measurement": "a-galactosidase", "setting": "SCRM-FAMA heterodimer; 100 µM", "result": "5.72 milliunits /(ml x cell) and 5.36 milliunits /(ml x cell) and 4.71 milliunits /(ml x cell)"},
      {"measurement": "effect in quantitative α-galactosidase assay", "setting": "SCRM-MUTE heterodimer; 0, 10, 50, 100 μM", "result": "inhibits these stomatal bHLH heterodimers in a dose-dependent manner"},
      {"measurement": "effect on association in Y2H growth assay", "setting": "SCRM-MUTE heterodimer; 50 μM, 1 mM 3-AT", "result": "diminishes"},
      {"measurement": "a-galactosidase", "setting": "SCRM-MUTE heterodimer; 10 µM", "result": "6.11 milliunits /(ml x cell) and 7.57 milliunits /(ml x cell) and 6.75 milliunits /(ml x cell)"},
      {"measurement": "a-galactosidase", "setting": "SCRM-MUTE heterodimer; 50 µM", "result": "4.46 milliunits /(ml x cell) and 5.23 milliunits /(ml x cell) and 6.35 milliunits /(ml x cell)"},
      {"measurement": "a-galactosidase", "setting": "SCRM-MUTE heterodimer; 100 µM", "result": "5.40 milliunits /(ml x cell) and 3.71 milliunits /(ml x cell) and 5.42 milliunits /(ml x cell)"},
      {"measurement": "effect in quantitative α-galactosidase assay", "setting": "SCRM-SPCH heterodimer; 0, 10, 50, 100 μM", "result": "slightly less impact"},
      {"measurement": "effect on association in Y2H growth assay", "setting": "SCRM-SPCH heterodimer; 50 μM, 1 mM 3-AT, N-terminally truncated SPCH", "result": "diminishes"},
      {"measurement": "a-galactosidase", "setting": "SCRM-SPCH heterodimer; 10 µM", "result": "5.51 milliunits /(ml x cell) and 5.69 milliunits /(ml x cell) and 5.47 milliunits /(ml x cell)"},
      {"measurement": "a-galactosidase", "setting": "SCRM-SPCH heterodimer; 50 µM", "result": "5.02 milliunits /(ml x cell) and 5.49 milliunits /(ml x cell) and 5.63 milliunits /(ml x cell)"},
      {"measurement": "a-galactosidase", "setting": "SCRM-SPCH heterodimer; 100 µM", "result": "5.62 milliunits /(ml x cell) and 5.13 milliunits /(ml x cell)"}
    ]}
  ]
}
